Results from the supplement of paper PMC10307832.

Key:
Assay in all cases: relative viability (nuclei count vs DMSO), 5 days (fraction); higher = more cells survive
NCI-H1650 = system: NCI-H1650
Outline: (§1)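 One day after seeding in 1536-well plates, lung cancer cell lines were dosed by pin tool. Dosing was either single-drug or a fixed anchor-drug dose plus five library-drug doses (not always all listed) in √10 steps. After 5 days, nuclei were stained in one fix-and-stain step and counted on 4× images, and relative viability is the nuclei count of treated wells over that of vehicle wells, given as the median of duplicate plates.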

NCI-H441 = system: NCI-H441
Outline: as §1

NCI-H1355 = system: NCI-H1355
Outline: as §1

NCI-H460 = system: NCI-H460
Outline: as §1

EKVX = system: EKVX
Outline: as §1

NCI-H1395 = system: NCI-H1395
Outline: as §1

NCI-H1437 = system: NCI-H1437
Outline: as §1

NCI-H1563 = system: NCI-H1563
Outline: as §1

NCI-H838 = system: NCI-H838
Outline: as §1

NCI-H1755 = system: NCI-H1755
Outline: as §1

NCI-H2085 = system: NCI-H2085
Outline: as §1

NC(=O)Nc1cc(-c2cccc(F)c2)sc1C(=O)N[C@H]1CCCNC1 [AZD7762] + Cc1nc(Nc2ncc(C(=O)Nc3c(C)cccc3Cl)s2)cc(N2CCN(CCO)CC2)n1 [Dasatinib] (partner 0.075 µM)
relative viability (NCI-H1650; first compound 0.01 µM): 0.313
relative viability (NCI-H1650; first compound 0.03162 µM): 0.311
relative viability (NCI-H1650; first compound 0.1 µM): 0.314
relative viability (NCI-H1650; first compound 0.3162 µM): 0.264
relative viability (NCI-H1650; first compound 1 µM): 0.19
relative viability (NCI-H441; first compound 0.01 µM): 0.773
relative viability (NCI-H441; first compound 0.03162 µM): 0.68
relative viability (NCI-H441; first compound 0.1 µM): 0.555
relative viability (NCI-H441; first compound 0.3162 µM): 0.556
relative viability (NCI-H441; first compound 1 µM): 0.384
relative viability (NCI-H1355; first compound 0.01 µM): 0.668
relative viability (NCI-H1355; first compound 0.03162 µM): 0.849
relative viability (NCI-H1355; first compound 0.1 µM): 0.739
relative viability (NCI-H1355; first compound 0.3162 µM): 0.681
relative viability (NCI-H1355; first compound 1 µM): 0.506
relative viability (NCI-H460; first compound 0.01 µM): 0.531
relative viability (NCI-H460; first compound 0.03162 µM): 0.578
relative viability (NCI-H460; first compound 0.1 µM): 0.443
relative viability (NCI-H460; first compound 0.3162 µM): 0.304
relative viability (NCI-H460; first compound 1 µM): 0.0715
relative viability (EKVX; first compound 0.01 µM): 0.623
relative viability (EKVX; first compound 0.03162 µM): 0.615
relative viability (EKVX; first compound 0.1 µM): 0.337
relative viability (EKVX; first compound 0.3162 µM): 0.543
relative viability (EKVX; first compound 1 µM): 0.521
relative viability (NCI-H1395; first compound 0.01 µM): 0.449
relative viability (NCI-H1395; first compound 0.03162 µM): 0.424
relative viability (NCI-H1395; first compound 0.1 µM): 0.427
relative viability (NCI-H1395; first compound 0.3162 µM): 0.371
relative viability (NCI-H1395; first compound 1 µM): 0.302
relative viability (NCI-H1437; first compound 0.01 µM): 0.346
relative viability (NCI-H1437; first compound 0.03162 µM): 0.586
relative viability (NCI-H1437; first compound 0.1 µM): 0.427
relative viability (NCI-H1437; first compound 0.3162 µM): 0.286
relative viability (NCI-H1437; first compound 1 µM): 0.307
relative viability (NCI-H1563; first compound 0.01 µM): 0.451
relative viability (NCI-H1563; first compound 0.03162 µM): 0.492
relative viability (NCI-H1563; first compound 0.1 µM): 0.5
relative viability (NCI-H1563; first compound 0.3162 µM): 0.524
relative viability (NCI-H1563; first compound 1 µM): 0.419
relative viability (NCI-H838; first compound 0.01 µM): 0.322
relative viability (NCI-H838; first compound 0.03162 µM): 0.276
relative viability (NCI-H838; first compound 0.1 µM): 0.258
relative viability (NCI-H838; first compound 0.3162 µM): 0.251
relative viability (NCI-H838; first compound 1 µM): 0.24
relative viability (NCI-H1755; first compound 0.01 µM): 0.276
relative viability (NCI-H1755; first compound 0.03162 µM): 0.428
relative viability (NCI-H1755; first compound 0.1 µM): 0.416
relative viability (NCI-H1755; first compound 0.3162 µM): 0.325
relative viability (NCI-H1755; first compound 1 µM): 0.215
relative viability (NCI-H2085; first compound 0.01 µM): 0.247
relative viability (NCI-H2085; first compound 0.03162 µM): 0.254
relative viability (NCI-H2085; first compound 0.1 µM): 0.243
relative viability (NCI-H2085; first compound 0.3162 µM): 0.201
relative viability (NCI-H2085; first compound 1 µM): 0.216
